Reference: the NIST ThermoML archive (doi:10.1021/je1012229)

Conditions: 101.33 kPa, Liquid, Vibrating tube method

CCCCn1cc[n+](C)c1.F[P-](F)(F)(F)(F)F [1-butyl-3-methylimidazolium hexafluorophosphate]
Conditions	mass density [kg/m3]
283.15 K	1380.2
293.15 K	1372
303.15 K	1362.6
313.15 K	1354.1
323.15 K	1345.7
333.15 K	1339.1
343.15 K	1331.7
353.15 K	1323.4
363.15 K	1314.2
